{"source": "patent US20060052282A1", "about": "“Diagnostic and therapeutic means for pathologies associated with alpha 2 subunit of the na, k pump” (priority 2002, published 2006)", "key": {"HeLa cells": {"test_system": "HeLa cells", "test": "Ouabain treatment of transfected HeLa cells (survival, MTT cell viability)", "type": "cell-based, human", "conditions": "1 μM ouabain", "procedure": "Constructs were transfected by calcium phosphate (HeLa cells) following standard procedures or by Lipofectamine (COS-7 cells), (Gibco, Invitrogene Co., Carlsbad, Calif., USA).\nCell viability was measured with the MTT (13) reduction assay after 12, 24, 36, 48 and 60 hours. Each experiment was made in triplicate and statistical analysis was done by Student's t-test (homoscedastic).\n(§1) As all vertebrate cells present Na,K ATPase activity, the endogenous Na,K pump activity of HeLa cells was quenched to test the ion transport performance of the exogenous mutant forms. A site-directed mutagenesis was carried out to abolish the natural ouabain sensitivity of the ATP1A2 construct by mutagenizing two amino acids, Q116R and N127D, in the first extracellular loop that is part of the ouabain binding site of Na,K ATPase (15).\nConstructs were transfected by calcium phosphate (HeLa cells) following standard procedures.\nCell viability was measured with the MTT reduction assay after 24,48 and 72 hours of 1 μM ouabain challenge. We performed two independent experiments and in each experiment, datapoints are in triplicate."}, "HEK293": {"test_system": "HEK293", "test": "Ouabain treatment of transfected HEK293 cells", "type": "cell-based, human", "conditions": "1 μM ouabain; pA2Oua^r-wt versus mock transfected cells", "procedure": "as §1"}}}
{"smiles": "C[C@@H]1O[C@@H](O[C@H]2C[C@@H](O)[C@]3(CO)[C@H]4[C@H](O)C[C@]5(C)[C@@H](C6=CC(=O)OC6)CC[C@]5(O)[C@@H]4CC[C@]3(O)C2)[C@H](O)[C@H](O)[C@H]1O", "note": "[ouabain]", "values": [{"measurement": "cell survival in ouabain-containing media", "setting": "HeLa cells; HeLa cells transfected with ouabain-resistant ATP1A2 construct pA2Oua^r-wt", "result": "can survive and grow"}, {"measurement": "cell survival under ouabain treatment", "setting": "HeLa cells; HeLa cells transfected with ouabain-resistant T378N (AHC) ATP1A2 construct", "result": "did not survive"}, {"measurement": "cell survival under ouabain treatment", "setting": "HeLa cells; HeLa cells transfected with pA2Oua^r-P764 (L764P)", "result": "failed to survive"}, {"measurement": "cell survival under ouabain treatment", "setting": "HeLa cells; HeLa cells transfected with pA2Oua^r-R887 (W887R)", "result": "failed to survive"}, {"measurement": "time to death of cells in ouabain-containing media", "setting": "HeLa cells; mock transfected HeLa cells (wild-type ATP1A2, non-ouabain resistant)", "result": "36 to 48", "unit": "h"}, {"measurement": "cell survival under ouabain treatment", "setting": "HeLa cells; simulated heterozygous state, equal amount of wild-type and T378N mutant cDNAs", "result": "intermediate behaviour"}, {"measurement": "cell survival under ouabain treatment", "setting": "HeLa cells; simulated heterozygous states, equal amounts of wild-type and mutant (P764 or R887) constructs", "result": "intermediate behavior"}, {"measurement": "cell survival in ouabain-containing media compared with HeLa", "setting": "HEK293", "result": "Identical results"}]}
